Data on seven molecules can be found in the supplement of paper PMC8671470.

Holding throughout (experiment): cell viability (% survival relative to DMSO control, bortezomib = 0%); higher = less cytotoxic
What all share (details): 72 h

For one assay, the system named is BV-173. In outline: (§1)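 Fifteen myeloid leukaemia cell lines (10 AML, 5 CML) were seeded at a density titrated to the linear growth range. They went into 384-well plates with compounds pre-printed at 1, 10, 100, 1000 or 10000 nM in duplicate. After 72 h at 37 °C with 5% CO2, viability was read by CellTiter-Glo luminescence. Values are percent survival, with vehicle set to 100% and a 10 µM positive control to 0%, averaged over the duplicates.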

A further assay relates to HEL. In a few lines:
as §1

A further assay deals with ML-2. In outline: as §1
A further assay has as its system MOLM-13. In outline:
as §1

In the case of `O=C(O)C(Cl)Cl` [Dichloroacetate], the cell viability in the assay on BV-173 (1 nM) turned out to be 96.9%; in the assay with BV-173 (10 nM), 91%; with BV-173 (100 nM) it was 103%; with BV-173 (1000 nM), 95.7%; in the assay with BV-173 (10000 nM), 93.9%; with HEL (1 nM), 102%. For the same molecule, the cell viability with HEL (10 nM) turned out to be 102%; in the assay with HEL (100 nM) it was 101%; in the assay on HEL (1000 nM) it was 97%; in the assay on HEL (10000 nM), 103%; with ML-2 (1 nM) it was 91.7%; with ML-2 (10 nM), 102%. Besides, the cell viability was 103% with ML-2 (100 nM); 95.8% in the assay on ML-2 (1000 nM); 103% with ML-2 (10000 nM); 95.9% in the assay on MOLM-13 (1 nM); 99.5% in the assay with MOLM-13 (10 nM); 97.7% with MOLM-13 (100 nM). Further, the figures for the cell viability in the assay on MOLM-13 (1000 nM) and with MOLM-13 (10000 nM) were 89.4% and 102%, respectively.

Take `O=C1Oc2ccccc2C(=O)C1CC1C(=O)Oc2ccccc2C1=O` (stereo not given) [Dicumarol]: the cell viability was 89.5% with BV-173 (1 nM); 107% with BV-173 (10 nM); 91.8% with BV-173 (100 nM); 94.1% with BV-173 (1000 nM); 109% with BV-173 (10000 nM); 109% in the assay with HEL (1 nM). The cell viability with HEL (10 nM) was determined as 102%; in the assay on HEL (100 nM), 92%; with HEL (1000 nM), 101%; in the assay on HEL (10000 nM) it was 107%; in the assay with ML-2 (1 nM), 93.8%; in the assay with ML-2 (10 nM) it was 91.9%. Besides, the cell viability in the assay on ML-2 (100 nM) came out at 99.2%; with ML-2 (1000 nM) it was 104%; in the assay on ML-2 (10000 nM) it was 95.4%; with MOLM-13 (1 nM), 105%; with MOLM-13 (10 nM), 109%; in the assay on MOLM-13 (100 nM), 107%. The cell viability in the assay with MOLM-13 (1000 nM) was determined as 120%; in the assay on MOLM-13 (10000 nM), 97.1%.

As for `CC12CCC(O)CC1CCC1C2CCC2(C)C(C3=CC(=O)OC3)CCC12O` (stereo not given) [Digitoxigenin], the cell viability in the assay with BV-173 (1 nM) is 106%; in the assay on BV-173 (10 nM), 95.9%; in the assay on BV-173 (100 nM) it was 86.2%; in the assay with BV-173 (1000 nM) it was 2.96%; in the assay with BV-173 (10000 nM), -1.17%; in the assay on HEL (1 nM) it was 102%. In addition, the cell viability was 99.1% with HEL (10 nM); 103% in the assay on HEL (100 nM); 1.26% in the assay with HEL (1000 nM); -1.18% in the assay on HEL (10000 nM); 97.3% in the assay on ML-2 (1 nM); 97.5% in the assay on ML-2 (10 nM). Besides, the cell viability is 107% in the assay with ML-2 (100 nM); 0.616% in the assay on ML-2 (1000 nM); -1.47% in the assay on ML-2 (10000 nM); 68.7% in the assay on MOLM-13 (1 nM); 116% in the assay with MOLM-13 (10 nM); 54.5% in the assay with MOLM-13 (100 nM). Further, the cell viability in the assay on MOLM-13 (1000 nM) was 0.802%; with MOLM-13 (10000 nM), -1.32%.

For the molecule `C[C@H]1O[C@@H](O[C@H]2[C@@H](O)C[C@H](O[C@H]3[C@@H](O)C[C@H](O[C@H]4CC[C@@]5(C)[C@H](CC[C@@H]6[C@@H]5C[C@@H](O)[C@]5(C)[C@@H](C7=CC(=O)OC7)CC[C@]65O)C4)O[C@@H]3C)O[C@@H]2C)C[C@H](O)[C@@H]1O` [Digoxin], the cell viability with BV-173 (1 nM) was 92.3%; with BV-173 (10 nM) it was 106%; with BV-173 (100 nM), 3.24%; with BV-173 (1000 nM), -0.0612%; in the assay with BV-173 (10000 nM) it was -0.063%; with HEL (1 nM) it was 97.3%. The cell viability in the assay with HEL (10 nM) is 92.9%; in the assay on HEL (100 nM), 49%; in the assay on HEL (1000 nM), -0.296%; in the assay on HEL (10000 nM) it was -0.0735%; in the assay with ML-2 (1 nM), 99%; in the assay on ML-2 (10 nM), 109%. The cell viability in the assay on ML-2 (100 nM) is 5.07%; with ML-2 (1000 nM), -0.2%; with ML-2 (10000 nM), -0.154%; in the assay on MOLM-13 (1 nM), 105%; in the assay with MOLM-13 (10 nM), 105%; with MOLM-13 (100 nM), 0.137%. Besides, the results for the cell viability with MOLM-13 (1000 nM) and in the assay on MOLM-13 (10000 nM) were -0.695% and 0.435%, respectively.

With `O=c1c2ccccc2[se]n1-c1ccccc1` [Ebselen], the cell viability worked out at 90.5% with BV-173 (1 nM); 101% in the assay with BV-173 (10 nM); 84.4% in the assay on BV-173 (100 nM); 106% with BV-173 (1000 nM); 83.8% in the assay with BV-173 (10000 nM); 102% in the assay on HEL (1 nM). Besides, the cell viability in the assay with HEL (10 nM) came to 97.3%; in the assay on HEL (100 nM), 106%; in the assay with HEL (1000 nM) it was 96.5%; in the assay with HEL (10000 nM) it was 81.8%; in the assay with ML-2 (1 nM) it was 95.6%; in the assay with ML-2 (10 nM), 96.7%. For the same molecule, the cell viability was determined as 96.1% in the assay on ML-2 (100 nM); 96.9% in the assay with ML-2 (1000 nM); 82% in the assay on ML-2 (10000 nM); 104% in the assay on MOLM-13 (1 nM); 97.9% in the assay on MOLM-13 (10 nM); 108% in the assay with MOLM-13 (100 nM). Moreover, the cell viability in the assay with MOLM-13 (1000 nM) was determined as 92.5%; in the assay with MOLM-13 (10000 nM) it was 115%.

As to `Clc1ccc(COC(Cn2ccnc2)c2ccc(Cl)cc2Cl)cc1` (stereo not given) [Econazole], the cell viability in the assay on BV-173 (1 nM) worked out at 114%; in the assay with BV-173 (10 nM), 92.6%; with BV-173 (100 nM), 84.2%; in the assay on BV-173 (1000 nM) it was 70.1%; in the assay with BV-173 (10000 nM), 43.1%; in the assay with HEL (1 nM) it was 106%. The cell viability in the assay on HEL (10 nM) stood at 90.4%; with HEL (100 nM) it was 99.1%; in the assay on HEL (1000 nM), 99%; with HEL (10000 nM) it was 77.3%; with ML-2 (1 nM) it was 110%; in the assay on ML-2 (10 nM) it was 88.3%. The cell viability in the assay on ML-2 (100 nM) was determined as 112%; in the assay on ML-2 (1000 nM), 89.8%; in the assay with ML-2 (10000 nM), 58.1%; in the assay with MOLM-13 (1 nM), 79.3%; in the assay on MOLM-13 (10 nM), 140%; with MOLM-13 (100 nM), 84.8%. In addition, the cell viability stood at 58.7% with MOLM-13 (1000 nM) and 29.2% in the assay with MOLM-13 (10000 nM).

Take `C#Cc1cnc(O)nc1O` [Eniluracil]: the cell viability turned out to be 94.6% with BV-173 (1 nM); 115% in the assay on BV-173 (10 nM); 106% in the assay on BV-173 (100 nM); 109% with BV-173 (1000 nM); 85.9% in the assay with BV-173 (10000 nM); 100% with HEL (1 nM). Besides, the cell viability in the assay on HEL (10 nM) was 92.2%; in the assay on HEL (100 nM), 118%; with HEL (1000 nM), 90.1%; with HEL (10000 nM) it was 106%; with ML-2 (1 nM), 102%; with ML-2 (10 nM) it was 120%. In addition, the cell viability in the assay with ML-2 (100 nM) turned out to be 110%; in the assay with ML-2 (1000 nM) it was 97.3%; in the assay with ML-2 (10000 nM), 107%; in the assay on MOLM-13 (1 nM), 75.5%; with MOLM-13 (10 nM), 108%; in the assay with MOLM-13 (100 nM), 114%. For the same molecule, the results for the cell viability in the assay on MOLM-13 (1000 nM) and with MOLM-13 (10000 nM) were 91.4% and 104%, respectively.

In general, cell viability refers to a read-out of living cells in per cent, often relative to untreated cells.
